Legend:
Assay type in all cases: in vivo
[1] = test system: wheat variety Ritmo; experiment: Plot trial in Germany: green leaf area by visual scoring; settings: sprays at BBCH 39 and 59
Procedure, shortened: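 Field plot trial in Germany, wheat variety Ritmo, bixafen products sprayed sequentially at BBCH 39 and 59 at 400 l water/ha, 5 repetitions. Green leaf area duration followed by regular visual scoring of green leaf fraction.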

[2] = test system: wheat variety Ritmo; experiment: Plot trial: yield components; settings: sprays at BBCH 39 and 59
[3] = test system: infection-free wheat plants of the cultivar Passat; experiment: Glasshouse trial: green leaf area by visual scoring; settings: glasshouse
Procedure, shortened: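 Infection-free wheat grown 4 months under controlled glasshouse conditions in 10-litre containers, 10 repetitions per trial component. Products applied as sequential sprays at BBCH 39 and 59 in 300 l water/ha. Duration of green leaf area scored visually at regular intervals.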

[4] = test system: infection-free wheat plants of the cultivar Passat; experiment: Glasshouse trial: size of the flag leaf; settings: at BBCH 83-85
Procedure, shortened: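 Infection-free wheat grown 4 months in 10-litre containers in a glasshouse, 10 repetitions, pests and mildew controlled. Test products sprayed sequentially at BBCH 39 and 59 in 300 l water/ha; flag leaf length and width measured.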

[5] = test system: infection-free wheat plants of the cultivar Passat; experiment: Glasshouse trial: time of heading (ear emergence); design: time of heading of wheat (ears emerged): unit not given here
Procedure, shortened: (§1)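 Wheat grown in 10-litre containers for 4 months under controlled glasshouse conditions, in earth/C-horizon/sand (4:2:1) substrate, fed 0.2% liquid fertilizer every two weeks and watered as needed. Bixafen effects were assessed with 10 repetitions per trial component.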

[6] = test system: infection-free wheat plants of the cultivar Passat; experiment: Glasshouse trial: temperature of ears and leaves as measure of transpiration activity
Procedure, shortened: as §1

[7] = test system: infection-free wheat plants of the cultivar Passat; experiment: Glasshouse trial: gas exchange activity of wheat ears; settings: development stage BBCH 75
Procedure, shortened: as §1

[8] = test system: wheat; experiment: Effect on the number of kernels/ear; settings: 2nd trial; applied at BBCH 39 (prothioconazole 200 g a.i.; bixafen + prothioconazole 75 + 150 g a.i./ha)
[9] = 7 days after second fungicide application
[10] = 14 days after second fungicide application
[11] = 21 days after second fungicide application
[12] = 28 days after second fungicide application
[13] = 35 days after second fungicide application
[14] = 42 days after second fungicide application
[15] = 68 days after second fungicide application (so in the source)
[16] = 75 days after second fungicide application (so in the source)
[17] = 82 days after second fungicide application (so in the source)
[18] = 89 days after second fungicide application (so in the source)
[19] = 96 days after second fungicide application (so in the source)
[20] = 103 days after second fungicide application (so in the source)
[21] = 110 days after second fungicide application (so in the source)
[22] = 117 days after second fungicide application (so in the source)

## OC(Cc1ccccc1Cl)(Cn1nc[nH]c1=S)C1(Cl)CC1 (stereo not drawn) [Prothioconazole]
[1]; [9]
  green leaf area of the flag leaf: 98.8 % leaf area
  green leaf area of the second-from-top leaf (F-1): 97.8 % leaf area
  green leaf area of the third-from-top leaf (F-2): 96.1 % leaf area
[1]; [10]
  green leaf area of the flag leaf: 98.2 % leaf area
  green leaf area of the second-from-top leaf (F-1): 97.8 % leaf area
  green leaf area of the third-from-top leaf (F-2): 95.9 % leaf area
[1]; [11]
  green leaf area of the flag leaf: 98.1 % leaf area
  green leaf area of the second-from-top leaf (F-1): 96.8 % leaf area
  green leaf area of the third-from-top leaf (F-2): 94.9 % leaf area
[1]; [12]
  green leaf area of the flag leaf: 94.0 % leaf area
  green leaf area of the second-from-top leaf (F-1): 91.2 % leaf area
  green leaf area of the third-from-top leaf (F-2): 83.7 % leaf area
[1]; [13]
  green leaf area of the flag leaf: 58.8 % leaf area
  green leaf area of the second-from-top leaf (F-1): 44.3 % leaf area
  green leaf area of the third-from-top leaf (F-2): 25.3 % leaf area
[1]; [14]
  green leaf area of the flag leaf: 13.8 % leaf area
  green leaf area of the second-from-top leaf (F-1): 4.2 % leaf area
  green leaf area of the third-from-top leaf (F-2): 0 % leaf area
[1]; 49 days after second fungicide application
  green leaf area of the second-from-top leaf (F-1): 0 % leaf area
[2]
  Ears/m^2: 397
  Harvest Index: 59.3
  Straw: 533 g m^−2
  TKM (thousand-kernel mass): 46.3 g
  Yield: 8.1 t ha^−1
[3]; [15]
  green leaf area of the flag leaf (F): 100 % leaf area
  green leaf area of the second-from-top leaf (F-1): 100 % leaf area
  green leaf area of the third-from-top leaf (F-2): 100 % leaf area
[3]; [16]
  green leaf area of the flag leaf (F): 100 % leaf area
  green leaf area of the second-from-top leaf (F-1): 100 % leaf area
  green leaf area of the third-from-top leaf (F-2): 95 % leaf area
[3]; [17]
  green leaf area of the flag leaf (F): 100 % leaf area
  green leaf area of the second-from-top leaf (F-1): 95 % leaf area
  green leaf area of the third-from-top leaf (F-2): 83 % leaf area
[3]; [18]
  green leaf area of the flag leaf (F): 95 % leaf area
  green leaf area of the second-from-top leaf (F-1): 83 % leaf area
  green leaf area of the third-from-top leaf (F-2): 53 % leaf area
[3]; [19]
  green leaf area of the flag leaf (F): 85 % leaf area
  green leaf area of the second-from-top leaf (F-1): 57 % leaf area
  green leaf area of the third-from-top leaf (F-2): 30 % leaf area
[3]; [20]
  green leaf area of the flag leaf (F): 62 % leaf area
  green leaf area of the second-from-top leaf (F-1): 30 % leaf area
  green leaf area of the third-from-top leaf (F-2): 17 % leaf area
[3]; [21]
  green leaf area of the flag leaf (F): 38 % leaf area
  green leaf area of the second-from-top leaf (F-1): 19 % leaf area
  green leaf area of the third-from-top leaf (F-2): 8 % leaf area
[3]; [22]
  green leaf area of the flag leaf (F): 15 % leaf area
  green leaf area of the second-from-top leaf (F-1): 5 % leaf area
  green leaf area of the third-from-top leaf (F-2): 0 % leaf area
[4]
  Length of the flag leaf: 26.7 cm
  Width of the flag leaf: 1.3 cm
[4]; calculated using the formula A = 0.67 × length × width
  Area of the flag leaf: 23.26 cm^2
[4]; untreated = 100
  Area [rel.] of the flag leaf: 106 rel.
[5]; 45 days after sowing
  time of heading of wheat (ears emerged): 6.9
[5]; 50 days after sowing
  time of heading of wheat (ears emerged): 29.0
[5]; 55 days after sowing
  time of heading of wheat (ears emerged): 42.6
[5]; 60 days after sowing
  time of heading of wheat (ears emerged): 48.2
[5]; 65 days after sowing
  time of heading of wheat (ears emerged): 64.1
[5]; 70 days after sowing
  time of heading of wheat (ears emerged): 77.9
[5]; 75 days after sowing
  time of heading of wheat (ears emerged): 87.1
[5]; 80 days after sowing
  time of heading of wheat (ears emerged): 94.9
[5]; 85 days after sowing
  time of heading of wheat (ears emerged): 100
[6]; BBCH 75, ear
  Temperature (as a measure of the transpiration activity): 23.1 °C
[6]; BBCH 75, leaf
  Temperature (as a measure of the transpiration activity): 22.4 °C
[6]; BBCH 80, ear
  Temperature (as a measure of the transpiration activity): 19.5 °C
[6]; BBCH 80, leaf
  Temperature (as a measure of the transpiration activity): 16.6 °C
[6]; BBCH 85, ear
  Temperature (as a measure of the transpiration activity): 24.8 °C
[6]; BBCH 85, leaf
  Temperature (as a measure of the transpiration activity): 23.7 °C
[6]; BBCH 90, ear
  Temperature (as a measure of the transpiration activity): 24.2 °C
[6]; BBCH 90, lear (so in the source)
  Temperature (as a measure of the transpiration activity): 23.1 °C
[7]
  Photosynthesis (gas exchange activity of wheat ears): −1.86 a CO2 per ear
  Respiration (gas exchange activity of wheat ears): 2.12 ab CO2 per ear
[8]
  Kernels/ear: 30.1
